In patent US10550105B2 (Ribon Therapeutics Inc., priority 2018, dated 2020):

What follows are compounds tested against PARP7 (Homo sapiens (Human), UniProt Q7Z3E1) (assay: Enzymatic assay for inhibition of PARP7: TR-FRET displacement of biotinylated Probe A from the TIPARP active site). Settings: Table A-1.
Assay type: binding
Method in brief: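 Read-out: 665/615 nm emission ratio (ex 320 nm, 90 μs delay) indexing bound TIPARP–Probe A. Final incubation 30 min, 25° C; compounds in dose response. Curve fit of % inhibition vs concentration; Hill slope floating or fixed at 1 (3-parameter).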

PARP7, sequence (Q7Z3E1 whole entry): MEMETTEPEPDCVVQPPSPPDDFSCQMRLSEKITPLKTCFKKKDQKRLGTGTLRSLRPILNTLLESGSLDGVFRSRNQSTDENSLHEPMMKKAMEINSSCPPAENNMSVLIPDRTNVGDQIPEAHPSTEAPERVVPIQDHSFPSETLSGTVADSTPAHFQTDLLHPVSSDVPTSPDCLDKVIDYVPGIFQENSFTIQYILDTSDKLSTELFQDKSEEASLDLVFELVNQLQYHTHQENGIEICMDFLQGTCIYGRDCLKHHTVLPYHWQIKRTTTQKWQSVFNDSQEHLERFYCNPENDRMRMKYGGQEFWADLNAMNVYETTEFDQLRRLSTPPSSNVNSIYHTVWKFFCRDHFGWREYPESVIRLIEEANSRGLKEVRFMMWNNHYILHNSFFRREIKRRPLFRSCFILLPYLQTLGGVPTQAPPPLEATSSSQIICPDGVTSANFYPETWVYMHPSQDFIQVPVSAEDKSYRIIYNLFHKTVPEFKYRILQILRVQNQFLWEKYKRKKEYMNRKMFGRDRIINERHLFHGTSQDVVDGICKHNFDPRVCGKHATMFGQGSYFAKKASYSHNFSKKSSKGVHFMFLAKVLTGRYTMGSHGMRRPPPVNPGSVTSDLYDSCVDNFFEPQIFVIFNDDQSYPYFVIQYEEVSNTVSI

| SMILES | IC50 [nM] |
| --- | --- |
| N#Cc1ccc(N2CCN(C(=O)CCOC[C@@H](Nc3cn[nH]c(=O)c3C(F)(F)F)c3ccccc3)CC2)nc1 [Example 514B, 6-(4-[3-[(2S)-2-[[6-Oxo-5-(trifluoromethyl)-1,6-dihydropyridazin-4-yl]amino]-2-phenylethoxy]propanoyl]piperazin-1-yl)pyridine-3-carbonitrile] | < 100 |
| Cc1ccc(N2CCN(C(=O)c3cccc(OC[C@@H]4CCCN4c4cn[nH]c(=O)c4C(F)(F)F)c3)CC2)nc1 [Example 446, (S)-5-(2-((3-(4-(5-Methylpyridin-2-yl)piperazine-1-carbonyl)phenoxy)methyl)pyrrolidin-1-yl)-4-(trifluoromethyl)pyridazin-3(2H)-one] | < 100 |
| CC(=O)N1CCC(Oc2ccnc3c2CN(c2cn[nH]c(=O)c2C(F)(F)F)C3)CC1 [Example 338, 5-(4-((1-Acetylpiperidin-4-yl)oxy)-5,7-dihydro-6H-pyrrolo[3,4-b]pyridin-6-yl)-4-(trifluoromethyl)pyridazin-3(2H)-one] | < 100 |
| O=c1[nH]ncc(N2Cc3ccccc3C2CO)c1Cl (stereo not drawn) [Example 191, 4-Chloro-5-(1-(hydroxymethyl)isoindolin-2-yl)pyridazin-3(2H)-one] | ≥ 1000 |
| O=C(c1cccc(OC[C@@H]2CCCN2c2cn[nH]c(=O)c2C(F)(F)F)c1)N1CCn2cnnc2C1 [Example 451, (S)-5-(2-((3-(5,6,7,8-Tetrahydro-[1,2,4]triazolo[4,3-a]pyrazine-7-carbonyl)phenoxy)methyl)pyrrolidin-1-yl)-4-(trifluoromethyl)pyridazin-3(2H)-one] | 100 to 1000 |
| CSc1c(N2Cc3ccccc3C2)cn[nH]c1=O [Example 189, 5-(Isoindolin-2-yl)-4-(methylthio)pyridazin-3(2H)-one] | 100 to 1000 |
| CN(CCOc1cccc(C(=O)N2CCN(c3ccc(C#N)cn3)CC2)c1)c1cn[nH]c(=O)c1C(F)(F)F [Example 29, 6-(4-[[3-(2-[methyl[6-oxo-5-(trifluoromethyl)-1,6-dihydropyridazin-4-yl]amino]ethoxy)phenyl]carbonyl]piperazin-1-yl)pyridine-3-carbonitrile] | < 100 |
| C[C@@H](COCCC(=O)N1CCN(c2ncc(F)cn2)CC1)Nc1cn[nH]c(=O)c1C(F)(F)F [Example 679, (S)-5-((1-(3-(4-(5-Fluoropyrimidin-2-yl)piperazin-1-yl)-3-oxopropoxy)propan-2-yl)amino)-4-(trifluoromethyl)pyridazin-3(2H)-one] | < 100 |
| O=C(CCOC[C@@H](Nc1cn[nH]c(=O)c1C(F)(F)F)C1CC1)N1CCN(c2ncc(C(F)(F)F)cn2)CC1 [Example 606, (S)-5-[(1-Cyclopropyl-2-[3-oxo-3-[4-[5-(trifluoromethyl)pyrimidin-2-yl)piperazin-1-yl]propoxy]-ethyl]amino]-4-(trifluoromethyl)pyridazin-3(2H)-one] | < 100 |
| C[C@@H](COCCC(=O)N1CCN(c2ncc(C(F)F)cn2)CC1)Nc1cn[nH]c(=O)c1C(F)(F)F [Example 706, (S)-5-((1-(3-(4-(5-(Difluoromethyl)pyrimidin-2-yl)piperazin-1-yl)-3-oxopropoxy)propan-2-yl)amino)-4-(trifluoromethyl)pyridazin-3(2H)-one] | < 100 |
| COCCOc1ccc2c(n1)CN(c1cn[nH]c(=O)c1C(F)(F)F)C2 [Example 311, 5-(2-(2-Methoxyethoxy)-5,7-dihydro-6H-pyrrolo[3,4-b]pyridin-6-yl)-4-(trifluoromethyl)pyridazin-3(2H)-one] | 100 to 1000 |
| O=c1[nH]ncc(N2Cc3cccc(Oc4ccncn4)c3C2)c1C(F)(F)F [Example 195, 5-(4-(Pyrimidin-4-yloxy)isoindolin-2-yl)-4-(trifluoromethyl)pyridazin-3(2H)-one] | < 100 |
| O=C(c1cccc(OCC2c3ccccc3CN2c2cn[nH]c(=O)c2C(F)(F)F)c1)N1CCn2nccc2C1 (stereo not drawn) [Example 404, 5-(1-((3-(4,5,6,7-Tetrahydropyrazolo[1,5-a]pyrazine-5-carbonyl)phenoxy)methyl)isoindolin-2-yl)-4-(trifluoromethyl)pyridazin-3(2H)-one] | 100 to 1000 |
| N#Cc1ccc(N2CCN(C(=O)c3cccc(OC[C@H]4c5ccccc5CN4c4cn[nH]c(=O)c4C(F)(F)F)c3)CC2)nc1 (single isomer, unassigned) [Example 18 Isomer A] | 100 to 1000 |
| N#Cc1ccc(N2CCC3(CCN(C(=O)CCOC[C@@H]4CCCN4c4cn[nH]c(=O)c4C(F)(F)F)C3)C2)nc1 (stereo partly drawn) [Example 111, 6-[7-(3-[[(2S)-1-[6-oxo-5-(trifluoromethyl)-1,6-dihydropyridazin-4-yl]pyrrolidin-2-yl]methoxy]propanoyl)-2,7-diazaspiro[4.4]nonan-2-yl]pyridine-3-carbonitrile] | 100 to 1000 |
| N#Cc1ccc(N2CCN(C(=O)c3cccc(OCCNc4cn[nH]c(=O)c4C(F)(F)F)c3)CC2)nc1 [Example 41, 6-(4-[[3-(2-[[6-oxo-5-(trifluoromethyl)-1,6-dihydropyridazin-4-yl]amino]ethoxy)phenyl]carbonyl]piperazin-1-yl)pyridine-3-carbonitrile] | < 100 |
| COc1ccc2c(c1)CN(c1cn[nH]c(=O)c1C(F)(F)F)C2 [Example 174, 5-(5-Methoxyisoindolin-2-yl)-4-(trifluoromethyl)pyridazin-3(2H)-one] | < 100 |
| N#Cc1ccc(N2CCN(C(=O)c3cccc(NCC4CCCN4c4cn[nH]c(=O)c4C(F)(F)F)c3)CC2)nc1 (stereo not drawn) [Example 455, 6-(4-(3-(((1-(6-Oxo-5-(trifluoromethyl)-1,6-dihydropyridazin-4-yl)pyrrolidin-2-yl)methyl)amino)benzoyl)piperazin-1-yl)nicotinonitrile] | < 100 |
| N#Cc1ccc(N2CCN(C(=O)CCO[C@H]3CCC[C@@H]3Oc3cn[nH]c(=O)c3C(F)(F)F)CC2)nc1 (single isomer, unassigned) [Example 572 Isomer A] | < 100 |
| O=C(C[C@@H]1CC[C@@H](CNc2cn[nH]c(=O)c2C(F)(F)F)O1)N1CCN(c2ncc(C(F)(F)F)cn2)CC1 (single isomer, unassigned) [Example 568 Isomer A] | < 100 |
| COC[C@@H](COCCC(=O)N1CCN(c2ncc(C)cn2)CC1)Nc1cn[nH]c(=O)c1C(F)(F)F [Example 690, (S)-5-((1-Methoxy-3-(3-(4-(5-methylpyrimidin-2-yl)piperazin-1-yl)-3-oxopropoxy)propan-2-yl)amino)-4-(trifluoromethyl)pyridazin-3(2H)-one] | < 100 |
| O=c1[nH]ncc(OCCOCCS(=O)(=O)N2CCN(c3ncc(C(F)(F)F)cn3)CC2)c1C(F)(F)F [Example 724, 4-(Trifluoromethyl)-5-(2-(2-((4-(5-(trifluoromethyl)pyrimidin-2-yl)piperazin-1-yl)sulfonyl)ethoxy)ethoxy)pyridazin-3(2H)-one] | < 100 |
| N#Cc1ccc(N2CCN(C(=O)c3ccc(OCc4cccc5c4CN(c4cn[nH]c(=O)c4C(F)(F)F)C5)cc3)CC2)nc1 [Example 400] | < 100 |
| O=C(C[C@H]1CC[C@@H]([C@@H]2CCCN2c2cn[nH]c(=O)c2C(F)(F)F)O1)N1CCN(c2ncc(Cl)cn2)CC1 [Example 147B, 5-[(2S)-2-[(2S,5R)-5-[2-[4-(5-chloropyrimidin-2-yl)piperazin-1-yl]-2-oxoethyl]oxolan-2-yl]pyrrolidin-1-yl]-4-(trifluoromethyl)-2,3-dihydropyridazin-3-one] | < 100 |
